PubChem BioAssay (NCI)
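Cultured in 96-well plates, cells were exposed to test compound for 48 hours across five concentrations. Abbreviation: GI50, concentration required for 50% inhibition of growth. Definition used: TGI = concentration required for complete inhibition of growth.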

Columns and labels:
Test in all cases: NCI-60 cell line screen, 48 h
786-0 renal = system: 786-0 renal
A498 renal = system: A498 renal
A549 NSCLC = system: A549 NSCLC
ACHN renal = system: ACHN renal
BT-549 breast = system: BT-549 breast
CAKI-1 renal = system: CAKI-1 renal
CCRF-CEM leukemia = system: CCRF-CEM leukemia
COLO 205 colon = system: COLO 205 colon
DU-145 prostate = system: DU-145 prostate
HCC-2998 colon = system: HCC-2998 colon
HCT-116 colon = system: HCT-116 colon
HCT-15 colon = system: HCT-15 colon
HL-60(TB) leukemia = system: HL-60(TB) leukemia
HOP-62 NSCLC = system: HOP-62 NSCLC
HOP-92 NSCLC = system: HOP-92 NSCLC
HS 578T breast = system: HS 578T breast
IGROV1 ovarian = system: IGROV1 ovarian
KM12 colon = system: KM12 colon
LOX IMVI melanoma = system: LOX IMVI melanoma
M14 melanoma = system: M14 melanoma
MCF7 breast = system: MCF7 breast
MDA-MB-231 breast = system: MDA-MB-231 breast
MDA-MB-435 = system: MDA-MB-435
MOLT-4 leukemia = system: MOLT-4 leukemia
NCI-H226 lung = system: NCI-H226 lung
NCI-H23 lung = system: NCI-H23 lung
NCI-H460 lung = system: NCI-H460 lung
NCI-H522 lung = system: NCI-H522 lung
NCI/ADR-RES ovarian = system: NCI/ADR-RES ovarian
OVCAR-3 ovarian = system: OVCAR-3 ovarian
OVCAR-4 ovarian = system: OVCAR-4 ovarian
OVCAR-5 ovarian = system: OVCAR-5 ovarian
OVCAR-8 ovarian = system: OVCAR-8 ovarian
PC-3 prostate = system: PC-3 prostate
RPMI-8226 leukemia = system: RPMI-8226 leukemia
RXF 393 renal = system: RXF 393 renal
SF-268 CNS = system: SF-268 CNS
SF-295 CNS = system: SF-295 CNS
SF-539 CNS = system: SF-539 CNS
SK-MEL-2 melanoma = system: SK-MEL-2 melanoma
SK-MEL-28 melanoma = system: SK-MEL-28 melanoma
SK-MEL-5 melanoma = system: SK-MEL-5 melanoma
SK-OV-3 ovarian = system: SK-OV-3 ovarian
SN12C renal = system: SN12C renal
SNB-19 CNS = system: SNB-19 CNS
SNB-75 CNS = system: SNB-75 CNS
SR leukemia = system: SR leukemia
SW-620 colon = system: SW-620 colon
T-47D breast = system: T-47D breast
TK-10 renal = system: TK-10 renal
U251 CNS = system: U251 CNS
UACC-257 melanoma = system: UACC-257 melanoma
UACC-62 melanoma = system: UACC-62 melanoma
UO-31 renal = system: UO-31 renal

Oc1ccc(Cl)cc1-c1cc(-c2ccc(Cl)cc2)n[nH]1
GI50 (786-0 renal): 2.51 µM
TGI (786-0 renal): 7.54 µM
GI50 (A498 renal): 10.9 µM
TGI (A498 renal): 23.9 µM
GI50 (A549 NSCLC): 2.99 µM
TGI (A549 NSCLC): 13.9 µM
GI50 (ACHN renal): 2.45 µM
TGI (ACHN renal): 9.23 µM
GI50 (BT-549 breast): 2 µM
TGI (BT-549 breast): 9.45 µM
GI50 (CAKI-1 renal): 1.87 µM
TGI (CAKI-1 renal): 11.3 µM
GI50 (CCRF-CEM leukemia): 1.45 µM
TGI (CCRF-CEM leukemia): 14.5 µM
GI50 (COLO 205 colon): 3.73 µM
TGI (COLO 205 colon): 15.3 µM
GI50 (DU-145 prostate): 3.02 µM
TGI (DU-145 prostate): 11 µM
GI50 (HCC-2998 colon): 1.86 µM
TGI (HCC-2998 colon): 11.5 µM
GI50 (HCT-116 colon): 1.57 µM
TGI (HCT-116 colon): 2.99 µM
GI50 (HCT-15 colon): 0.349 µM
TGI (HCT-15 colon): 6.31 µM
GI50 (HL-60(TB) leukemia): 1.81 µM
TGI (HL-60(TB) leukemia): 15.8 µM
GI50 (HOP-62 NSCLC): 1.6 µM
TGI (HOP-62 NSCLC): 13.6 µM
GI50 (HOP-92 NSCLC): 1.18 µM
TGI (HOP-92 NSCLC): 4.6 µM
GI50 (HS 578T breast): 4.13 µM
TGI (HS 578T breast): 31.6 µM
GI50 (IGROV1 ovarian): 1.9 µM
TGI (IGROV1 ovarian): 15.9 µM
GI50 (KM12 colon): 1.69 µM
TGI (KM12 colon): 6.21 µM
GI50 (LOX IMVI melanoma): 2.02 µM
TGI (LOX IMVI melanoma): 5.65 µM
GI50 (M14 melanoma): 2.72 µM
TGI (M14 melanoma): 11.6 µM
GI50 (MCF7 breast): 0.551 µM
TGI (MCF7 breast): 5.25 µM
GI50 (MDA-MB-231 breast): 0.624 µM
TGI (MDA-MB-231 breast): 6.79 µM
GI50 (MDA-MB-435): 3.14 µM
TGI (MDA-MB-435): 14.2 µM
GI50 (MOLT-4 leukemia): 2.05 µM
TGI (MOLT-4 leukemia): 19.5 µM
GI50 (NCI-H226 lung): 2.87 µM
TGI (NCI-H226 lung): 24.1 µM
GI50 (NCI-H23 lung): 2.03 µM
TGI (NCI-H23 lung): 6.26 µM
GI50 (NCI-H460 lung): 2.03 µM
TGI (NCI-H460 lung): 8.15 µM
GI50 (NCI-H522 lung): 3.26 µM
TGI (NCI-H522 lung): 12.9 µM
GI50 (NCI/ADR-RES ovarian): 2.67 µM
TGI (NCI/ADR-RES ovarian): 7.92 µM
GI50 (OVCAR-3 ovarian): 1.53 µM
TGI (OVCAR-3 ovarian): 4.59 µM
GI50 (OVCAR-4 ovarian): 0.322 µM
TGI (OVCAR-4 ovarian): 5.7 µM
GI50 (OVCAR-5 ovarian): 9.55 µM
TGI (OVCAR-5 ovarian): 36.5 µM
GI50 (OVCAR-8 ovarian): 3.47 µM
TGI (OVCAR-8 ovarian): 14.1 µM
GI50 (PC-3 prostate): 1.78 µM
TGI (PC-3 prostate): 8.44 µM
GI50 (RPMI-8226 leukemia): 2.11 µM
TGI (RPMI-8226 leukemia): 7.39 µM
GI50 (RXF 393 renal): 6.01 µM
TGI (RXF 393 renal): 20.8 µM
GI50 (SF-268 CNS): 2.64 µM
TGI (SF-268 CNS): 15.1 µM
GI50 (SF-295 CNS): 3.01 µM
TGI (SF-295 CNS): 12.8 µM
GI50 (SF-539 CNS): 3.56 µM
TGI (SF-539 CNS): 14.7 µM
GI50 (SK-MEL-2 melanoma): 11.3 µM
TGI (SK-MEL-2 melanoma): 30.1 µM
GI50 (SK-MEL-28 melanoma): 4.46 µM
TGI (SK-MEL-28 melanoma): 21.2 µM
GI50 (SK-MEL-5 melanoma): 1.35 µM
TGI (SK-MEL-5 melanoma): 10.2 µM
GI50 (SK-OV-3 ovarian): 2.21 µM
TGI (SK-OV-3 ovarian): 13.8 µM
GI50 (SN12C renal): 3.13 µM
TGI (SN12C renal): 15.5 µM
GI50 (SNB-19 CNS): 2.59 µM
TGI (SNB-19 CNS): 12.1 µM
GI50 (SNB-75 CNS): 1.44 µM
TGI (SNB-75 CNS): 10.8 µM
GI50 (SR leukemia): 0.577 µM
TGI (SR leukemia): 12.3 µM
GI50 (SW-620 colon): 2.54 µM
TGI (SW-620 colon): 11.1 µM
GI50 (T-47D breast): 1.45 µM
TGI (T-47D breast): 7.73 µM
GI50 (TK-10 renal): 3.56 µM
TGI (TK-10 renal): 12.4 µM
GI50 (U251 CNS): 3.2 µM
TGI (U251 CNS): 11.3 µM
GI50 (UACC-257 melanoma): 9.92 µM
TGI (UACC-257 melanoma): 37.7 µM
GI50 (UACC-62 melanoma): 2.49 µM
TGI (UACC-62 melanoma): 10.4 µM
GI50 (UO-31 renal): 1.38 µM
TGI (UO-31 renal): 10.1 µM
